Legend:
CDK9/Cyclin T1 = target: T1, CDK9/Cyclin T1 (Homo sapiens, UniProt P50750); assay: LanthaScreen Eu Kinase Binding Assay, CDK9/Cyclin T1; settings: tracer 236, read-out: CDK9/Cyclin T1 (activity range), Kd
T1 construct: purchased Invitrogen
Experimental: (§1) This protocol describes how the LanthaScreen Eu Kinase Binding Assay was performed to determine dissociation constants (Kd) of compounds of general formula (I) and CDK/Cyclin complexes. The principle behind this assay is based upon the binding and displacement of an Alexa Fluor 647-labeled tracer, which binds to the active site of kinases. Binding of the tracer to the kinase is detected using a Eu-labeled antibody. Simultaneous binding of both the tracer and antibody to the kinase gives rise to a FRET-signal. Binding of an inhibitor to the kinase competes for binding with the tracer, resulting in a loss of FRET.
(§2) The compounds of general formula (I) summarized in Table 1 were diluted from a 10 mM DMSO stock solution 1:10 in a total volume of 15 μL DMSO. This compound predilution was then serial diluted 1:3 over 8 steps in DMSO and briefly spun down. Each compound solution was now diluted 1:33.33 in kinase buffer (HEPES: 20 mM, pH: 8.0; MgCl2: 10 mM; DTT: 1 mM; Brij-35: 0.01%), mixed thoroughly and spun down. For every sample, 5 μL of the diluted compound were mixed with 5 μL tracer working solution (e.g. 60 nM tracer 236 in kinase buffer for CDK2/Cyclin A) and 5 μL CDK/Cyclin/Anti-GST-AB-working solution (e.g. 15 nM CDK2/Cyclin A, 1:250 dilution of Anti-GST-AB in kinase buffer) in a well of a small volume 384 well plate (Corning Incorporated, Corning, N.Y., USA; order no. 3673). The tracer concentration was adjusted to its dissociation constant (Kd) for the CDK/Cyclin, which was 30 nM for CDK2/Cyclin A, CDK7/Cyclin H and CDK9/Cyclin T1, 20 nM for CDK8/Cyclin C, and 35 nM for CDK9/Cyclin K. For negative controls, in each well 5 μL of DMSO working solution (3% DMSO diluted in kinase buffer) was mixed with 5 μL Anti-GST-AB working solution (e.g. 1:250 dilution of Anti-GST-AB in kinase buffer for CDK2/Cyclin A) and 5 μL Tracer working solution (e.g. 60 nM Tracer 236 in kinase buffer for CDK2/Cyclin A). For positive controls, in each well 5 μL of DMSO working solution (3% DMSO diluted in kinase buffer) was mixed with 5 μL CDK/Cyclin/Anti-GST-AB-working solution: (e.g. 15 nM CDK2/Cyclin A, 1:250 dilution of Anti-GST-AB in kinase buffer) and 5 μL Tracer working solution (e.g. 60 nM Tracer 236 in kinase buffer for CDK2/Cyclin A). Positive and negative controls were calculated from at least 8 different sample wells. The 384 well plates were mixed in a Teleshaker plate mixer (Beckman Coulter, Brea, Calif., USA) at 2000 rpm for 40 sec, and incubated for 1 h at room temperature before reading. The FRET signal was measured at 340 nm excitation, 665 nm and 615 nm emission (for the kinase tracer and LanthaScreen Eu-AB, respectively) with an Envision spectrophotometer (Perkin Elmer, Waltham, Mass., USA) with 50 μs delay and 300 μs integration time. Kd values were determined from the sigmoidal dose response curves with the software Quattro Workflow (Quattro GmbH, Munich, Germany).

[1] = test system: LPS-induced TNF alpha release in PBMCs; assay: TNF alpha release assay (LPS-stimulated PBMCs); type: cell-based; settings: Homo sapiens, PBMC, 1 μg/mL LPS, 6 h, read-out: TNF alpha release (activity range), IC50
Experimental: Freshly isolated peripheral blood mononuclear cells (PBMCs) were seeded in 96-well cell culture plates with 200,000 cells in 100 μl cell culture medium (DMEM cell culture medium+glutamine from PAN Biotech GmbH, Aidenbach, Germany) supplemented with 10% fetal calf serum (PAA Laboratories GmbH, Pasching, Austria) per well and incubated overnight at 37° C., 5% CO2. To each well, 100 μL cell culture medium with 2× concentrated test compounds diluted from 10 mM DMSO stocks, or 100 μL DMEM with 0.4% DMSO for control wells, was added. The compounds of general formula (I) summarized in Table 6 were used in this assay. After incubation for 1 h at 37° C., 5% CO2, cells were stimulated with 1 μg/mL LPS (Lipopolysaccharides, Sigma, catalog #L4391-1 MG; 1 mg/ml stock solution), or left untreated for negative controls, and plates were incubated for 6 h at 37° C./5% CO2. The cell culture plates were centrifuged at 2000 rpm for 5 minutes, and supernatants were transferred to fresh 96-well polypropylene plates. 25 μL of supernatants were transferred into 96-well-plates of the human TNF alpha-tissue culture kit (Meso Scale Discovery, Gaithersburg, Md., USA), and manufacturer's instructions were followed for analysis of TNF alpha levels. Chemoluminescence was measured in the Mesoscale Sector Imager, and IC50 values were calculated with the software Excel Fit (IDBS, Guildford, UK) from 2-fold dilution series comprising at least 6 concentrations in duplicates.

CDK7/CyclinH/MAT1 = target: T2, CDK7/CyclinH/MAT1 (Homo sapiens, UniProt P50613); assay: LanthaScreen Eu Kinase Binding Assay, CDK7; settings: tracer 236, read-out: CDK7 (activity range), Kd
T2 construct: purchased Carna Biosciences
Experimental: as §1, §2

CDK2/CyclinA = target: T3, CDK2/CyclinA (Homo sapiens, UniProt P24941); assay: LanthaScreen Eu Kinase Binding Assay, CDK2; settings: tracer 236, read-out: CDK2 (activity range), Kd
T3 construct: purchased Proqinase
Experimental: as §1, §2

CDK9/Cyclin K = target: T4, CDK9/Cyclin K (Homo sapiens, UniProt P50750); assay: LanthaScreen Eu Kinase Binding Assay, CDK9/Cyclin K; settings: tracer 236, read-out: CDK9/Cyclin K (activity range), Kd
T4 construct: purchased Invitrogen
Experimental: as §1, §2

T4 sequence (P50750 whole entry): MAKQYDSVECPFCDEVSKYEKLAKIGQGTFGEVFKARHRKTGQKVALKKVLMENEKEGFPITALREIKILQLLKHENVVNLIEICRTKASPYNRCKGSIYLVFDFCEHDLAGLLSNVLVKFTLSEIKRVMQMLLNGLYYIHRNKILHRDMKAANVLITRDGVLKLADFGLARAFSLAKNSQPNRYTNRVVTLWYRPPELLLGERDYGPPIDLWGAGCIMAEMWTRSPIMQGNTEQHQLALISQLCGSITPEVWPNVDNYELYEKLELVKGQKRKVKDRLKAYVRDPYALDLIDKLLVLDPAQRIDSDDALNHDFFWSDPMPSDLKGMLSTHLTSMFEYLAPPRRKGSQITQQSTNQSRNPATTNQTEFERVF
T4 sequence (O75909 1-357 isoform O75909-1 partner): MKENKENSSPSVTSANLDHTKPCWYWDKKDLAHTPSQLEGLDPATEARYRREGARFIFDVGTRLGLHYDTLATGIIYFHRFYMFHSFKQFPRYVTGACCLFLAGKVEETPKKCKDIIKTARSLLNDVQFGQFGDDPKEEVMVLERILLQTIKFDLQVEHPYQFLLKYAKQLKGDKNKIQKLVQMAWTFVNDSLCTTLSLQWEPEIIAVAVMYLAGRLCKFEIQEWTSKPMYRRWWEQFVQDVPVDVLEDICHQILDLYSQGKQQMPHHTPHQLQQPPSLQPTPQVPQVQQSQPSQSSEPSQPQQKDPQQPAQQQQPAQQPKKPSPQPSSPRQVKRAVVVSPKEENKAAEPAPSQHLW
T1 sequence (P50750 whole entry): as the sequence (P50750 whole entry) above
T1 sequence (O60563 whole entry partner): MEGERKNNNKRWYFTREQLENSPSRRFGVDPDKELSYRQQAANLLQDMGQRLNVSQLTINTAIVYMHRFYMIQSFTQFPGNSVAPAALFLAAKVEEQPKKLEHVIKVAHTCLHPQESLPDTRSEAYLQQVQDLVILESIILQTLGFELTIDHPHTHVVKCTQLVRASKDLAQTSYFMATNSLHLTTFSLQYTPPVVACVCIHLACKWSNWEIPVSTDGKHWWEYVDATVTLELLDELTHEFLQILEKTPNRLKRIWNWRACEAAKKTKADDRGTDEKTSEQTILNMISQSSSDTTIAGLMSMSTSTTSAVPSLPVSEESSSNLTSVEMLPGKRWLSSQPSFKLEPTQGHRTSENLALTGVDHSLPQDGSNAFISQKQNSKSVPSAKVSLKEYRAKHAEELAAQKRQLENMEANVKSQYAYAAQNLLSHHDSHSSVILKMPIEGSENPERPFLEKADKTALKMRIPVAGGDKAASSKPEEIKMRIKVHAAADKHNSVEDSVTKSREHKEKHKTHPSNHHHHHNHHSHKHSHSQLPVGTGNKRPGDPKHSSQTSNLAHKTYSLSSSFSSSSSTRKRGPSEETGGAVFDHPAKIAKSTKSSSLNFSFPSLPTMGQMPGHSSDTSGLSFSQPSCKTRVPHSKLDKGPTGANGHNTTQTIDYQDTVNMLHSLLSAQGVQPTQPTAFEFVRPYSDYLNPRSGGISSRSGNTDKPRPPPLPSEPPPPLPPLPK
T2 sequence (P50613 whole entry): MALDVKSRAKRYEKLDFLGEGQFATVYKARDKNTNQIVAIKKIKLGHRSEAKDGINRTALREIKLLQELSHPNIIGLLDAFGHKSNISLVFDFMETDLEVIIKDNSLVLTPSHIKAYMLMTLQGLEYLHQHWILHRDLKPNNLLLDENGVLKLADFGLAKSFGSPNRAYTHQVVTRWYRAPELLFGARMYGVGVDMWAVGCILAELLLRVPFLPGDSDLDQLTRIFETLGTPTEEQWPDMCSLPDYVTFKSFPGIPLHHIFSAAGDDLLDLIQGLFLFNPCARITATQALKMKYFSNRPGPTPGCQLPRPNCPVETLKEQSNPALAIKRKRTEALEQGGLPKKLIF
T2 sequence (P51946 whole entry partner): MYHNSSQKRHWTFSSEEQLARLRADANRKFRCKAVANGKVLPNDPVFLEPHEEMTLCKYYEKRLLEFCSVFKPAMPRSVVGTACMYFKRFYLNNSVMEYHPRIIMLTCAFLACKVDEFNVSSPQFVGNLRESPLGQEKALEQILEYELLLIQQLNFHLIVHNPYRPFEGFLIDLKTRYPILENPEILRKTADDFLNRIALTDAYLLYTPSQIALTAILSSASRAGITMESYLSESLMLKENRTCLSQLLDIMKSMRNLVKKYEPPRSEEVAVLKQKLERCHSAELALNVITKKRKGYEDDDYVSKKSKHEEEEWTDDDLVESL
T2 sequence (P51948 whole entry partner): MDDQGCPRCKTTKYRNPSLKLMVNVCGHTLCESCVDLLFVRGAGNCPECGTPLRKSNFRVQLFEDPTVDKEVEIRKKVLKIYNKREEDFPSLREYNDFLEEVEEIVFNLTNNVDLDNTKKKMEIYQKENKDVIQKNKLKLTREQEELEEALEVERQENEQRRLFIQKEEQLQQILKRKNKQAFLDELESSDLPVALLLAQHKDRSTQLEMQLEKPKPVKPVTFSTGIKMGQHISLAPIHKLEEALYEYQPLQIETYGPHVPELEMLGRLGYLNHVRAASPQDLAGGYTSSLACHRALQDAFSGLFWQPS

Kd (CDK9/Cyclin T1) [µM]	Kd (CDK7/CyclinH/MAT1) [µM]	Kd (CDK2/CyclinA) [µM]	Kd (CDK9/Cyclin K) [µM]	Structure (SMILES)	IC50 [1] [µM]
< 0.1	> 10	0.1 to 1	< 0.1	COc1cc(F)ccc1-c1ccnc(Nc2cccc(CS(N)(=O)=O)c2)c1 [Compound G1, [3-((4-(4-Fluoro-2-methoxyphenyl)pyridin-2-yl)amino)phenyl]-methanesulfonamide]	0.1 to 1
0.1 to 1	–	–	0.1 to 1	COc1ccccc1-c1ccnc(Nc2cccc([N+](=O)[O-])c2)c1 [Compound C1, 4-(2-Methoxyphenyl)-N-(3-nitrophenyl)pyridin-2-amine]	1 to 10
< 0.1	> 10	0.1 to 1	–	COc1cc(F)ccc1-c1ccnc(Nc2cccc(NC(C)=O)c2)c1 [Compound J2, N-[3-((4-(4-Fluoro-2-methoxyphenyl)pyridin-2-yl)amino)phenyl]-acetamide]	–
< 0.1	1 to 10	< 0.1	–	COc1cc(F)ccc1-c1ccnc(Nc2cccc(NS(C)(=O)=O)c2)c1 [Compound J1, N-[3-((4-(4-Fluoro-2-methoxyphenyl)pyridin-2-yl)amino)phenyl]-methanesulfonamide]	–
< 0.1	> 10	< 0.1	< 0.1	COc1ccccc1-c1ccnc(Nc2cccc(S(N)(=O)=O)c2)c1 [Compound D1, 3-[(4-(2-Methoxyphenyl)pyridin-2-yl)amino]benzenesulfonamide]	0.1 to 1
1 to 10	–	–	–	COc1ccccc1-c1ccnc(Nc2ccccc2)c1 [Compound B1, 4-(2-Methoxyphenyl)-N-phenylpyridin-2-amine]	> 10
< 0.1	> 10	0.1 to 1	–	CCCNS(=O)(=O)Cc1cccc(Nc2cc(-c3ccc(F)cc3OC)ccn2)c1 [Compound K1, 1-[3-((4-(4-Fluoro-2-methoxyphenyl)pyridin-2-yl)amino)phenyl]-N-propylmethanesulfonamide]	–
0.1 to 1	> 10	< 0.1	< 0.1	COc1ccccc1-c1ccnc(Nc2ccc(S(N)(=O)=O)cc2)c1 [Compound E1, 4-[(4-(2-Methoxyphenyl)pyridin-2-yl)amino]benzenesulfonamide]	1 to 10
< 0.1	–	0.1 to 1	< 0.1	COc1ccccc1-c1ccnc(Nc2cccc(S(C)(=O)=O)c2)c1 [Compound F1, 4-(2-Methoxyphenyl)-N-(3-(methylsulfonyl)phenyl)pyridin-2-amine]	1 to 10
< 0.1	> 10	0.1 to 1	–	COc1cc(F)ccc1-c1ccnc(Nc2cccc(CS(=O)(=O)N(C)C)c2)c1 [Compound G3, 1-[3-((4-(4-Fluoro-2-methoxyphenyl)pyridin-2-yl)amino)phenyl]-N,N-dimethylmethanesulfonamide]	–
